From PMC2792609, “Effect of methomyl on hepatic mixed function oxidases in rats” (Indian Journal of Pharmacology, 2008)
Read-outs that look alike come from different tables or passages of the source.

Tests used:
microsomal protein = format: in vivo, rat; settings: for decrease in hepatic microsomal protein content: 3 days, vs control
Description: (§1) Adult male rats (weighing 200-230 g) were divided into four groups of six animals each. Group 1 received an equivalent amount of saline and served as control. Animals from group 2, 3, and 4 were given methomyl 1, 2, and 4 mg/kg body weight i.p. respectively, between 8: 00 a.m. and 9:00 a.m., for three consecutive days. In the second set of experiments, adult male rats were divided into four groups. Animals from group 2, 3, and 4 were injected with 4 mg/kg body weight methomyl for one, three, and five successive days. The volume injected into the rats of body weight 200 g was 1 ml. In another experiment, adult female rats and old male rats (weighing 350-450 g, 8 months old) were divided into two groups of six animals each. Group 2 of each category received methomyl (4 mg/kg body weight, i.p., for three successive days), and group 1 of each category received an equivalent amount of saline and served as the control group.
(§2) The rats were sacrificed by cervical dislocation, 24 hours after the last dose. Their livers were perfused in situ with ice cold 1.15% KCl containing 0.05 mM EDTA, rapidly excised, blotted dry, weighed, minced and homogenized with two volumes of ice cold 0.25 M sucrose solution, in a Potter-Elvehjem type homogenizer. The homogenate was centrifuged at 10,000 × g for 10 min, in a refrigerated centrifuge (REMI C-24). The microsomes were isolated by the procedure described by of Cinti et al.[4] The microsomal pellet was suspended in phosphate buffer (0.1 M, pH 7.4) and the suspension was used for the microsomal enzyme assays. Microsomal protein content was measured by the Biuret method, using bovine serum albumin as the standard.[5]

plasma ChE = settings: methomyl aerosol, male rats, repeated inhalation; cited from earlier work
[1] = test system: aspartate aminotransferase (SGOT); assay: Serum aspartate aminotransferase (SGOT) activity; format: in vivo, rat; settings: for Increased activity of aspartate aminotransferase: 3 days
Description: Adult male rats (weighing 200-230 g) were divided into four groups of six animals each. Group 1 received an equivalent amount of saline and served as control. Animals from group 2, 3, and 4 were given methomyl 1, 2, and 4 mg/kg body weight i.p. respectively, between 8: 00 a.m. and 9:00 a.m., for three consecutive days. In the second set of experiments, adult male rats were divided into four groups. Animals from group 2, 3, and 4 were injected with 4 mg/kg body weight methomyl for one, three, and five successive days. The volume injected into the rats of body weight 200 g was 1 ml. […]
Alanine aminotransferase and aspartate aminotransferase activity was measured using the Reitman and Frankel[12] method. Alkaline phosphatase activity was measured using Span diagnostic kits.[13] Cholinesterase activity was measured using the kinetic test method of Knedel et al.[14]

Aniline hydroxylase = assay: Hepatic microsomal aniline hydroxylase activity; format: in vivo, rat; settings: for decrease in the activity of aniline hydroxylase / decrease in activity of aniline hydroxylase: vs control
Description: as §1, §2
(§3) The microsomal electron transport components (cytochrome P450 and cytochrome b5) were determined using Hitachi UV-Visible double beam recording spectrophotometer, by the procedure of Omura and Sato.[67] Cytochrome c reductase activity was determined using the method recommended by Masters et al.[8] Aminopyrine N-demethylase activity was assayed according to the procedure described by Schenkman et al.[9] Formaldehyde liberated during N-demethylation was estimated by the procedure described by Nash.[10] Aniline hydroxylase assay was performed using the procedure reported by Govindwar and Dalvi.[11]

old male rats = settings: cited from earlier work
[2] = test system: Aminopyrine N-demethylase; assay: Hepatic microsomal aminopyrine N-demethylase activity; format: in vivo, rat
Description: as §1, §2, §3

Serum total protein [3] = format: in vivo, rat; settings: for decrease in total protein content: 3 days
Description: as §1

Cytochrome c reductase = assay: Hepatic microsomal cytochrome c reductase activity; format: in vivo, rat
Description: as §1, §2, §3

Serum total protein [4] = format: in vivo, rat; settings: female rats; for Serum total protein: for 3 days; for decrease in total protein content: 3 days
[5] = classification; cited from earlier work
[6] = adult female rats, 4 mg/kg body weight, i.p., three days
[7] = adult male rats, 1 mg/kg i.p., for 3 days
[8] = adult male rats, 2 mg/kg i.p., for 3 days
[9] = adult male rats, 4 mg/kg i.p., for 3 days
[10] = adult male rats, 4 mg/kg i.p., one, three and five days
[11] = adult rats, 4 mg/kg i.p., 1 day of treatment
[12] = adult rats, 4 mg/kg i.p., 3 days of treatment
[13] = adult rats, 4 mg/kg i.p., 5 days of treatment
[14] = old male rats, 4 mg/kg body weight, i.p., three days
[15] = female rats, 4 mg/kg body weight i.p., for 3 days
[16] = male rats, 1 mg/kg body weight i.p., for three days
[17] = male rats, 2 mg/kg body weight i.p., for three days
[18] = male rats, 4 mg/kg body weight i.p., for three days
[19] = adult female rat, 4 mg/kg i.p., three days, vs control
[20] = adult male rats, 4 mg/kg i.p., 3 days, vs control
[21] = old male rat, 4 mg/kg i.p., three days, vs control

Compound: CNC(=O)ON=C(C)SC [methomyl, S-methyl-N-(methyl carbomyl)-thioacetimidate]
- Microsomal protein (microsomal protein; [6]): 10.90 mg/g liver
- decrease in hepatic microsomal protein content (microsomal protein; adult male rats, 1 mg/kg i.p.): 28%
- Microsomal protein (microsomal protein; [7]): 13.53 mg/g liver
- decrease in hepatic microsomal protein content (microsomal protein; adult male rats, 2 mg/kg i.p.): 31%
- Microsomal protein (microsomal protein; [8]): 12.83 mg/g liver
- decrease in hepatic microsomal protein content (microsomal protein; adult male rats, 4 mg/kg i.p.): 19%
- Microsomal protein (microsomal protein; [9]): 15.10 mg/g liver
- change in microsomal protein (microsomal protein; [10]): No significant change
- Microsomal protein (microsomal protein; [11]): 15.77 mg/g liver
- Microsomal protein (microsomal protein; [12]): 16.00 mg/g liver
- Microsomal protein (microsomal protein; [13]): 12.20 mg/g liver
- Microsomal protein (microsomal protein; [14]): 18.80 mg/g liver
- effect on plasma ChE (plasma ChE): marked suppression
- SGOT [1, 15]: 51.0 u/l
- Increased activity of aspartate aminotransferase ([1]; female rats, 4 mg/kg i.p.): 39%
- SGOT [1, 16]: 35.7 u/l
- SGOT [1, 17]: 37.9 u/l
- Increased activity of aspartate aminotransferase ([1]; male rats, 2 mg/kg i.p.): 9%
- SGOT [1, 18]: 40.9 u/l
- Increased activity of aspartate aminotransferase ([1]; male rats, 4 mg/kg i.p.): 8%
- decrease in the activity of aniline hydroxylase (Aniline hydroxylase; adult female rat, 4 mg/kg i.p., three days): 43%
- Aniline hydroxylase (Aniline hydroxylase; [6]): 0.45 nmole of p-aminophenol formed/min/mg/microsomal protein
- Aniline hydroxylase (Aniline hydroxylase; [7]): 1.35 nmole of p-aminophenol formed/min/mg microsomalprotein
- Aniline hydroxylase (Aniline hydroxylase; [8]): 1.17 nmole of p-aminophenol formed/min/mg microsomalprotein
- decrease in the activity of aniline hydroxylase (Aniline hydroxylase; adult male rats, 4 mg/kg i.p., 3 days): 27%
- decrease in activity of aniline hydroxylase (Aniline hydroxylase; adult male rats, 4 mg/kg i.p., five days): 17%
- Aniline hydroxylase (Aniline hydroxylase; [9]): 0.80 nmole of p-aminophenol formed/min/mg microsomalprotein
- decrease in activity of aniline hydroxylase (Aniline hydroxylase; adult male rats, 4 mg/kg i.p., one day): 47%
- decrease in activity of aniline hydroxylase (Aniline hydroxylase; adult male rats, 4 mg/kg i.p., three days): 71%
- Aniline hydroxylase (Aniline hydroxylase; [11]): 0.60 nmole of p-aminophenol formed/min/mg/microsomal protein
- Aniline hydroxylase (Aniline hydroxylase; [12]): 0.33 nmole of p-aminophenol formed/min/mg/microsomal protein
- Aniline hydroxylase (Aniline hydroxylase; [13]): 0.93 nmole of p-aminophenol formed/min/mg/microsomal protein
- Aniline hydroxylase (Aniline hydroxylase; [14]): 1.80 nmole of p-aminophenol formed/min/mg/microsomal protein
- hemoglobin content, hematocrit value, erythrocyte, and leucocyte count (old male rats): Decreased
- decrease in the activity of aminopyrine N-demethylase [2, 19]: 26%
- Aminopyrine N-demethylase [2, 6]: 3.30 nmole of formaldehyde liberated/min/mg microsomal protein
- Aminopyrine N-demethylase [2, 7]: 3.2 nmole of formaldehyde liberated/min/mg microsomal protein
- decrease in the activity of aminopyrine N-demethylase ([2]; adult male rats, 2 mg/kg i.p., 3 days, vs control): 50%
- Aminopyrine N-demethylase [2, 8]: 1.9 nmole of formaldehyde liberated/min/mg microsomal protein
- decrease in the activity of aminopyrine N-demethylase [2, 20]: 40%
- decrease in activity of aminopyrine N-demethylase ([2]; adult male rats, 4 mg/kg i.p., five days, vs control): 31%
- Aminopyrine N-demethylase [2, 9]: 2.3 nmole of formaldehyde liberated/min/mg microsomal protein
- decrease in activity of aminopyrine N-demethylase ([2]; adult male rats, 4 mg/kg i.p., one day, vs control): 31%
- decrease in activity of aminopyrine N-demethylase ([2]; adult male rats, 4 mg/kg i.p., three days, vs control): 51%
- Aminopyrine N-demethylase [2, 11]: 3.11 nmole of formaldehyde liberated/min/mg microsomal protein
- Aminopyrine N-demethylase [2, 12]: 2.20 nmole of formaldehyde liberated/min/mg microsomal protein
- Aminopyrine N-demethylase [2, 13]: 3.09 nmole of formaldehyde liberated/min/mg microsomal protein
- decrease in aminopyrine N-demethylase [2, 21]: 50%
- Aminopyrine N-demethylase [2, 14]: 2.26 nmole of formaldehyde liberated/min/mg microsomal protein
- Serum total protein (Serum total protein [3]; [15]): 1.70 g/dL
- decrease in total protein content (Serum total protein [3]; female rats, 4 mg/kg i.p.): 23%
- Serum total protein (Serum total protein [3]; [16]): 2.02 g/dL
- decrease in total protein content (Serum total protein [3]; male rats, 1 mg/kg i.p.): 13%
- Serum total protein (Serum total protein [3]; [17]): 1.80 g/dL
- decrease in total protein content (Serum total protein [3]; male rats, 2 mg/kg i.p.): 22%
- Serum total protein (Serum total protein [3]; [18]): 1.60 g/dL
- decrease in total protein content (Serum total protein [3]; male rats, 4 mg/kg i.p.): 30%
- decrease in the activity of cytochrome c reductase (Cytochrome c reductase; [19]): 42%
- Cytochrome c reductase (Cytochrome c reductase; [6]): 23.07 nmole of cytochrome c reduced/min/mg microsomal protein
- Cytochrome c reductase (Cytochrome c reductase; [7]): 35.73 nmole of cytochrome c reduced/min/mg microsomal protein
- Cytochrome c reductase (Cytochrome c reductase; [8]): 32.80 nmole of cytochrome c reduced/min/mg microsomal protein
- increase in cytochrome c reductase activity (Cytochrome c reductase; [20]): 14%
- Cytochrome c reductase (Cytochrome c reductase; [9]): 36.93 nmole of cytochrome c reduced/min/mg microsomal protein
- change in the activity of cytochrome c reductase (Cytochrome c reductase; [10]): No significant change
- Cytochrome c reductase (Cytochrome c reductase; [11]): 31.3 nmole of cytochrome c reduced/min/mg microsomal protein
- Cytochrome c reductase (Cytochrome c reductase; [12]): 26.7 nmole of cytochrome c reduced/min/mg microsomal protein
- Cytochrome c reductase (Cytochrome c reductase; [13]): 24.2 nmole of cytochrome c reduced/min/mg microsomal protein
- decrease in cytochrome c reductase (Cytochrome c reductase; [21]): 7%
- Cytochrome c reductase (Cytochrome c reductase; [14]): 33.30 nmole of cytochrome c reduced/min/mg microsomal protein
- Serum total protein (Serum total protein [4]; 1 mg/kg body weight i.p.): 1.90 g/dL
- decrease in total protein content (Serum total protein [4]; 1 mg/kg i.p.): 14%
- Serum total protein (Serum total protein [4]; 2 mg/kg body weight i.p.): 1.96 g/dL
- decrease in total protein content (Serum total protein [4]; 2 mg/kg i.p.): 11%
- pesticide toxicity category [5]: category-1
